In ChEMBL document CHEMBL5303573, “Mapping human microbiome drug metabolism by gut bacteria and their genes” (Nature, 2019):

What was measured:
[1] = The drug is tested on Collinsella aerofaciens strain: ATCC25986 for biotransformation. The drug concentrations were measured before and after a 12-h incubation by liquid-chromatography-coupled mass spectrometry (LC–MS); conditions: 2 µM
[2] = The drug is tested on Bacteroides fragilis strain: HMW615 for biotransformation. The drug concentrations were measured before and after a 12-h incubation by liquid-chromatography-coupled mass spectrometry (LC–MS); conditions: 2 µM
[3] = The drug is tested on Odoribacter splanchnicus strain: fecal isolate for biotransformation. The drug concentrations were measured before and after a 12-h incubation by liquid-chromatography-coupled mass spectrometry (LC–MS); conditions: 2 µM
[4] = The drug is tested on Parabacteroides merdae strain: ATCC43184 for biotransformation. The drug concentrations were measured before and after a 12-h incubation by liquid-chromatography-coupled mass spectrometry (LC–MS); conditions: 2 µM
[5] = The drug is tested on Anaerococcus hydrogenalis strain: DSM7454 for biotransformation. The drug concentrations were measured before and after a 12-h incubation by liquid-chromatography-coupled mass spectrometry (LC–MS); conditions: 2 µM
[6] = The drug is tested on Clostridium asparagiforme strain: DSM15981 for biotransformation. The drug concentrations were measured before and after a 12-h incubation by liquid-chromatography-coupled mass spectrometry (LC–MS); type: ADME; set-up: dose 2 uM, timepoint 0 vs 12 hours; conditions: enterocloster asparagiformis, 2 µM
[7] = The drug is tested on Clostridium sp. strain: fecal isolate for biotransformation. The drug concentrations were measured before and after a 12-h incubation by liquid-chromatography-coupled mass spectrometry (LC–MS); conditions: 2 µM
[8] = The drug is tested on Clostridium sporogenes strain: ATCC15579 for biotransformation. The drug concentrations were measured before and after a 12-h incubation by liquid-chromatography-coupled mass spectrometry (LC–MS); conditions: 2 µM
[9] = The drug is tested on Coprococcus comes strain: ATCC27758 for biotransformation. The drug concentrations were measured before and after a 12-h incubation by liquid-chromatography-coupled mass spectrometry (LC–MS); type: ADME; set-up: dose 2 uM, timepoint 0 vs 12 hours; conditions: 2 µM
[10] = The drug is tested on Enterococcus faecalis strain: V583 for biotransformation. The drug concentrations were measured before and after a 12-h incubation by liquid-chromatography-coupled mass spectrometry (LC–MS); conditions: 2 µM
[11] = The drug is tested on Eubacterium hallii strain: DSM3353 for biotransformation. The drug concentrations were measured before and after a 12-h incubation by liquid-chromatography-coupled mass spectrometry (LC–MS); conditions: anaerobutyricum hallii, 2 µM
[12] = The drug is tested on Ruminococcus gnavus strain: ATCC29149 for biotransformation. The drug concentrations were measured before and after a 12-h incubation by liquid-chromatography-coupled mass spectrometry (LC–MS); conditions: mediterraneibacter gnavus, 2 µM
[13] = The drug is tested on Providencia stuartii strain: ATCC25827 for biotransformation. The drug concentrations were measured before and after a 12-h incubation by liquid-chromatography-coupled mass spectrometry (LC–MS); conditions: 2 µM
[14] = bacteroides fragilis, 12 h, 2 µM
Description: The drug is tested on Bacteroides fragilis strain: NCTC 9343 for biotransformation. The drug concentrations were measured before and after a 12-h incubation by liquid-chromatography-coupled mass spectrometry (LC–MS)

[15] = parabacteroides distasonis, 12 h, 2 µM
Description: The drug is tested on Parabacteroides distasonis strain: ATCC8503 for biotransformation. The drug concentrations were measured before and after a 12-h incubation by liquid-chromatography-coupled mass spectrometry (LC–MS)

[16] = segatella copri, 12 h, 2 µM
Description: The drug is tested on Prevotella copri strain: DSM18205 for biotransformation. The drug concentrations were measured before and after a 12-h incubation by liquid-chromatography-coupled mass spectrometry (LC–MS)

[17] = enterocloster bolteae, 12 h, 2 µM
Description: The drug is tested on Clostridium bolteae strain: ATCCBAA-613 for biotransformation. The drug concentrations were measured before and after a 12-h incubation by liquid-chromatography-coupled mass spectrometry (LC–MS)

[18] = limosilactobacillus reuteri cf48-3a, 12 h, 2 µM
Description: The drug is tested on Lactobacillus reuteri CF48-3A strain: BEI HM-102 for biotransformation. The drug concentrations were measured before and after a 12-h incubation by liquid-chromatography-coupled mass spectrometry (LC–MS)

[19] = The drug is tested on Clostridium scindens strain: ATCC35704 for biotransformation. The drug concentrations were measured before and after a 12-h incubation by liquid-chromatography-coupled mass spectrometry (LC–MS); conditions: 2 µM
[20] = The drug is tested on Enterobacter cancerogenus strain: ATCC35316 for biotransformation. The drug concentrations were measured before and after a 12-h incubation by liquid-chromatography-coupled mass spectrometry (LC–MS); conditions: 2 µM

Compound	Bacterial Biotransformation [1]	Bacterial Biotransformation [2]	Bacterial Biotransformation [3]	Bacterial Biotransformation [4]	Bacterial Biotransformation [5]	Bacterial Biotransformation [6]	Bacterial Biotransformation [7]	Bacterial Biotransformation [8]	Bacterial Biotransformation [9]	Bacterial Biotransformation [10]	Bacterial Biotransformation [11]	Bacterial Biotransformation [12]	Bacterial Biotransformation [13]	Bacterial Biotransformation [14]	Bacterial Biotransformation [15]	Bacterial Biotransformation [16]	Bacterial Biotransformation [17]	Bacterial Biotransformation [18]	Bacterial Biotransformation [19]	Bacterial Biotransformation [20]
C[C@]12CCC(=O)C=C1[C@@H]1C[C@@H]1[C@H]1[C@@H]3[C@@H]4C[C@@H]4[C@@]4(CCC(=O)O4)[C@@]3(C)CC[C@@H]12 [DROSPIRENONE]	Compound NOT metabolized	Compound metabolized	Compound metabolized	–	Compound NOT metabolized	Compound NOT metabolized	Compound NOT metabolized	Compound metabolized	–	Compound NOT metabolized	Compound NOT metabolized	Compound metabolized	–	Compound metabolized	Compound NOT metabolized	Compound NOT metabolized	Compound NOT metabolized	Compound NOT metabolized	Compound NOT metabolized	–
CS(=O)(=O)O.OC(CCN1CCCCC1)(c1ccccc1)c1ccccc1 [PRIDINOL METHANESULFONATE]	Compound NOT metabolized	Compound NOT metabolized	Compound NOT metabolized	Compound NOT metabolized	Compound NOT metabolized	Compound NOT metabolized	–	Compound NOT metabolized	Compound NOT metabolized	–	Compound NOT metabolized	Compound NOT metabolized	Compound NOT metabolized	Compound NOT metabolized	–	Compound NOT metabolized	Compound NOT metabolized	Compound NOT metabolized	Compound NOT metabolized	–
CN1CC(=O)N2[C@H](c3ccc4c(c3)OCO4)c3[nH]c4ccccc4c3C[C@@H]2C1=O	Compound NOT metabolized	Compound metabolized	–	Compound NOT metabolized	Compound NOT metabolized	Compound NOT metabolized	Compound NOT metabolized	–	Compound NOT metabolized	Compound NOT metabolized	Compound NOT metabolized	Compound NOT metabolized	–	Compound NOT metabolized	Compound NOT metabolized	–	Compound NOT metabolized	Compound NOT metabolized	Compound NOT metabolized	–
CCCCCCOC(=O)/N=C(/N)c1ccc(NCc2nc3cc(C(=O)N(CCC(=O)OCC)c4ccccn4)ccc3n2C)cc1.CS(=O)(=O)O [DABIGATRAN ETEXILATE MESYLATE]	Compound NOT metabolized	–	Compound NOT metabolized	Compound NOT metabolized	Compound NOT metabolized	Compound NOT metabolized	–	Compound NOT metabolized	Compound NOT metabolized	Compound NOT metabolized	Compound NOT metabolized	Compound NOT metabolized	Compound NOT metabolized	Compound NOT metabolized	Compound NOT metabolized	Compound NOT metabolized	Compound NOT metabolized	Compound NOT metabolized	Compound NOT metabolized	Compound NOT metabolized
CC(CN1c2ccccc2Sc2ccccc21)N(C)C (stereo not drawn) [PROMETHAZINE]	Compound NOT metabolized	Compound NOT metabolized	–	Compound NOT metabolized	Compound NOT metabolized	Compound NOT metabolized	–	Compound NOT metabolized	Compound NOT metabolized	Compound NOT metabolized	Compound NOT metabolized	Compound NOT metabolized	Compound NOT metabolized	Compound NOT metabolized	–	Compound NOT metabolized	Compound NOT metabolized	Compound NOT metabolized	Compound NOT metabolized	–
CCCc1nc2c(C)cc(-c3nc4ccccc4n3C)cc2n1Cc1ccc(-c2ccccc2C(=O)O)cc1	Compound NOT metabolized	–	Compound metabolized	–	Compound NOT metabolized	Compound NOT metabolized	–	–	Compound NOT metabolized	–	Compound NOT metabolized	Compound NOT metabolized	Compound NOT metabolized	Compound metabolized	Compound metabolized	–	–	–	Compound NOT metabolized	Compound NOT metabolized
CCN(CC)CCCC(C)Nc1c2ccc(Cl)cc2nc2ccc(OC)cc12 (stereo not drawn) [QUINACRINE]	Compound NOT metabolized	–	Compound NOT metabolized	Compound NOT metabolized	–	Compound NOT metabolized	–	Compound NOT metabolized	Compound NOT metabolized	–	Compound NOT metabolized	–	Compound NOT metabolized	Compound NOT metabolized	Compound NOT metabolized	Compound NOT metabolized	Compound NOT metabolized	Compound NOT metabolized	–	Compound NOT metabolized

Now from value to molecule:

Bacterial Biotransformation [1]	Bacterial Biotransformation [2]	Bacterial Biotransformation [3]	Bacterial Biotransformation [4]	Bacterial Biotransformation [5]	Bacterial Biotransformation [6]	Bacterial Biotransformation [7]	Bacterial Biotransformation [8]	Bacterial Biotransformation [9]	Bacterial Biotransformation [10]	Bacterial Biotransformation [11]	Bacterial Biotransformation [12]	Bacterial Biotransformation [13]	Bacterial Biotransformation [14]	Bacterial Biotransformation [15]	Bacterial Biotransformation [16]	Bacterial Biotransformation [17]	Bacterial Biotransformation [18]	Bacterial Biotransformation [19]	Bacterial Biotransformation [20]	Compound
Compound NOT metabolized	Compound NOT metabolized	Compound NOT metabolized	Compound NOT metabolized	Compound NOT metabolized	Compound NOT metabolized	Compound NOT metabolized	Compound NOT metabolized	Compound NOT metabolized	Compound NOT metabolized	Compound NOT metabolized	Compound NOT metabolized	Compound NOT metabolized	Compound NOT metabolized	Compound NOT metabolized	Compound NOT metabolized	Compound NOT metabolized	Compound NOT metabolized	–	–	COc1cc(C(=O)NCc2ccc(OCCN(C)C)cc2)cc(OC)c1OC [TRIMETHOBENZAMIDE]
Compound NOT metabolized	Compound NOT metabolized	Compound NOT metabolized	Compound NOT metabolized	Compound NOT metabolized	Compound NOT metabolized	Compound NOT metabolized	Compound NOT metabolized	–	–	Compound NOT metabolized	Compound NOT metabolized	Compound NOT metabolized	–	–	Compound NOT metabolized	–	Compound NOT metabolized	–	–	CN1C(C(=O)Nc2ccccn2)=C(O)c2sccc2S1(=O)=O [TENOXICAM]
Compound NOT metabolized	–	Compound NOT metabolized	Compound NOT metabolized	Compound NOT metabolized	Compound NOT metabolized	–	Compound NOT metabolized	–	Compound NOT metabolized	Compound NOT metabolized	Compound NOT metabolized	–	Compound NOT metabolized	Compound NOT metabolized	Compound NOT metabolized	–	Compound NOT metabolized	Compound NOT metabolized	Compound NOT metabolized	CN[C@H]1CC[C@@H](c2ccc(Cl)c(Cl)c2)c2ccccc21 [SERTRALINE]
